Six molecules from patent US10954252B1, “Inhibitors of human immunodeficiency virus replication” (ViiV HEALTHCARE UK (NO.5) LIMITED, priority 2017, dated 2021) can be followed below.

Series [1] can be described thus: Compound cytotoxicity, XTT-based colorimetric assay. Type of series: cell-based. To be noted: human, uninfected MT2 cells, Table 1a, day 4, XTT. The method, boiled down:
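CC50 from uninfected MT2 cells run under the antiviral-assay protocol without virus. Viability read on day 4 by XTT colorimetric assay.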
(In general: Tetrazolium assays rely on reduction of a dye to a coloured formazan, in cell work by metabolically active cells.)

In series [2] the test system is recombinant NL4-3 virus (nef section replaced with Renilla luciferase gene) in MT-2 cells. As to the kind of experiment: HIV cell culture assay (antiviral activity, luciferase readout). Type of series: cell-based. To be noted: Renilla, NL43, Table 1a; MT-2 cells infected for 4-5 days with recombinant NL4-3 luciferase virus. The method, boiled down:
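NL4-3 reporter virus carrying Renilla luciferase in place of part of nef, produced in 293T cells, was used to infect MT-2 cells for 4-5 days with serial compound dilutions. Luciferase activity was read with a live-cell substrate; EC50 derived from the median effect equation.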

The CC50 is the concentration at which the toxic effect on the cells reaches its halfway point. Usually EC50 stands for the concentration giving half of the maximal effect. As for `CN1Cc2ccc(-c3cc4[nH]ncc4nc3[C@H](Cc3cc(F)cc(F)c3)NC(=O)Cn3nc(C(F)F)c4c3C(F)(F)[C@@H]3C[C@H]43)cc2C1=O` [Example 23, 2-((3bS,4aR)-3-(difluoromethyl)-5,5-difluoro-3b,4,4a,5-tetrahydro-1H-cyclopropa[3,4]cyclopenta[1,2-c]pyrazol-1-yl)-N—((S)-2-(3,5-difluorophenyl)-1-(6-(2-methyl-3-oxoisoindolin-5-yl)-1H-pyrazolo[4,3-b]pyridin-5-yl)ethyl)acetamide], in series [1], the CC50 at 4 days came to 10000 nM. The EC50 in series [2] was determined as 21.8 nM.
As to `NS(=O)(=O)c1ccc(-c2cc3[nH]ncc3nc2[C@H](Cc2cc(F)cc(F)c2)NC(=O)Cn2nc(C(F)F)c3c2C(F)(F)[C@@H]2C[C@H]32)cc1` [Example 24, 2-((3bS,4aR)-3-(difluoromethyl)-5,5-difluoro-3b,4,4a,5-tetrahydro-1H-cyclopropa[3,4]cyclopenta[1,2-c]pyrazol-1-yl)-N—((S)-2-(3,5-difluorophenyl)-1-(6-(4-sulfamoylphenyl)-1H-pyrazolo[4,3-b]pyridin-5-yl)ethyl)acetamide], the CC50 at 4 days in series [1] was > 10000 nM. Also, in series [2], the EC50 was 1370 nM.
The matching figures for `O=C(Cn1nc(C(F)F)c2c1C(F)(F)[C@@H]1C[C@H]21)N[C@@H](Cc1cc(F)cc(F)c1)c1nc2cn[nH]c2cc1-c1ccc(S(=O)(=O)N2CCOCC2)cc1` [Example 25, 2-((3bS,4aR)-3-(difluoromethyl)-5,5-difluoro-3b,4,4a,5-tetrahydro-1H-cyclopropa[3,4]cyclopenta[1,2-c]pyrazol-1-yl)-N—((S)-2-(3,5-difluorophenyl)-1-(6-(4-(morpholinosulfonyl)phenyl)-1H-pyrazolo[4,3-b]pyridin-5-yl)ethyl)acetamide]: 7940 nM and 5.78 nM.
For `CN(C)S(=O)(=O)c1ccc(-c2cc3[nH]ncc3nc2[C@H](Cc2cc(F)cc(F)c2)NC(=O)Cn2nc(C(F)F)c3c2C(F)(F)[C@@H]2C[C@H]32)cc1` [Example 26, 2-((3bS,4aR)-3-(difluoromethyl)-5,5-difluoro-3b,4,4a,5-tetrahydro-1H-cyclopropa[3,4]cyclopenta[1,2-c]pyrazol-1-yl)-N—((S)-2-(3,5-difluorophenyl)-1-(6-(4-(N,N-dimethylsulfamoyl)phenyl)-1H-pyrazolo[4,3-b]pyridin-5-yl)ethyl)acetamide] the same measures were 5010 nM and 18.7 nM.
Take `O=C(Cn1nc(C(F)F)c2c1C(F)(F)[C@@H]1C[C@H]21)N[C@@H](Cc1cc(F)cc(F)c1)c1nc2cn[nH]c2cc1-c1ccc(S(=O)(=O)N2CCSCC2)cc1` [Example 27, 2-((3bS,4aR)-3-(difluoromethyl)-5,5-difluoro-3b,4,4a,5-tetrahydro-1H-cyclopropa[3,4]cyclopenta[1,2-c]pyrazol-1-yl)-N—((S)-2-(3,5-difluorophenyl)-1-(6-(4-(thiomorpholinosulfonyl)phenyl)-1H-pyrazolo[4,3-b]pyridin-5-yl)ethyl)acetamide]: in series [1], the CC50 at 4 days stood at 5010 nM. Further, the EC50 in series [2] was 4.94 nM.
As for `CN1CCN(S(=O)(=O)c2ccc(-c3cc4[nH]ncc4nc3[C@H](Cc3cc(F)cc(F)c3)NC(=O)Cn3nc(C(F)F)c4c3C(F)(F)[C@@H]3C[C@H]43)cc2)CC1` [Example 28, 2-((3bS,4aR)-3-(difluoromethyl)-5,5-difluoro-3b,4,4a,5-tetrahydro-1H-cyclopropa[3,4]cyclopenta[1,2-c]pyrazol-1-yl)-N—((S)-2-(3,5-difluorophenyl)-1-(6-(4-((4-methylpiperazin-1-yl)sulfonyl)phenyl)-1H-pyrazolo[4,3-b]pyridin-5-yl)ethyl)acetamide], in series [1], the CC50 at 4 days was > 10000 nM. The EC50 in series [2] is 19.9 nM.
